The term MIC denotes the lowest concentration found to suppress growth.

Holding throughout (assay type): functional
Test [1] concerns Pseudomonas aeruginosa. The experiment in a line: Antibacterial activity against wild-type Pseudomonas aeruginosa PAO1 assessed as growth inhibition after 72 hrs by broth microdilution method. As to conditions: PAO1, 72 h. On the technique in general: Dilution methods test growth across graded concentrations, often in twofold steps.
Test [2] deals with Escherichia coli. The experiment in a line: Antibacterial activity against Escherichia coli MC4100 assessed as growth inhibition after 72 hrs by broth microdilution method. As to conditions: MC4100, 72 h.
The subject of test [3] is Enterococcus faecalis. The test can be described thus: Antibacterial activity against Enterococcus faecalis OG1RF assessed as growth inhibition after 72 hrs by broth microdilution method.
The test system of test [4] is Staphylococcus aureus. The test can be described thus: Antibacterial activity against Staphylococcus aureus SH1000 assessed as growth inhibition after 72 hrs by broth microdilution method. The note with it: SH1000, 72 h.

The structures appear in SMILES notation. Some results are limits rather than exact numbers.

For `CCCCCCCCCCCCCCCCCC[N+](C)(C)CC[N+](C)(C)CCCCCCCCCC`, the minimal inhibitory concentration (MIC) in test [1] amounted to 32 µM; in test [2] it was 16 µM; in test [3], 2 µM; in test [4], 4 µM.
With `CCCCCCCCCCCCCCCC[N+](C)(C)CC[N+](C)(C)CCCCCCCCCCCCCC`, the minimum inhibitory concentration (MIC) is 63 µM in test [1], 16 µM in test [2], 2 µM in test [3] and 8 µM in test [4].
For `CCCCCCCCCCCCCCCCCCCC[N+](C)(C)CC[N+](C)(C)CCCCCCCCCCCCCCCC`, the MIC was found to be 63 µM in test [1], 63 µM in test [2], 32 µM in test [3] and 16 µM in test [4].
With `CCCCCCCCCCCCCCCCCC[N+](C)(C)CCN(C)C`, the MIC was 63 µM in test [1], 63 µM in test [2], 4 µM in test [3] and 2 µM in test [4].
As to `CCCCCCCCCCCCCCCCCCCC[N+](C)(C)CC[N+](C)(C)CCCCCCCC`, the minimum inhibitory concentration (MIC) in test [1] is 32 µM; in test [2], 16 µM; in test [3], 4 µM; in test [4], 4 µM.
Turning to `CCCCCCCC[N+](C)(C)CCN(C)C`, the MIC in test [1], in test [2], in test [3] and in test [4] was more than 1000 µM throughout.
As to `CCCCCCCCCCCCCC[N+](C)(C)CC[N+](C)(C)CCCCCCCCCCCCCC`, the minimal inhibitory concentration (MIC) in test [1] was determined as 32 µM; in test [2] it was 4 µM; in test [3], 2 µM; in test [4], 4 µM.
Turning to `CCCCCCCCCCCCCCCCCCCC[N+](C)(C)CCN(C)C`, the MIC worked out at 125 µM in test [1], 63 µM in test [2], 4 µM in test [3] and 4 µM in test [4].
For `CCCCCCCCCCCCCCCCCCCC[N+](C)(C)CC[N+](C)(C)CCCCCCCCCCCCCC`, the MIC in test [1] came out at 63 µM; in test [2] it was 16 µM; in test [3], 16 µM; in test [4], 8 µM.
As for `CCCCCCCCCCCCCCCCCC[N+](C)(C)CC[N+](C)(C)CCCCCCCCCCCC`, the MIC in test [1] amounted to 32 µM; in test [2] it was 16 µM; in test [3], 4 µM; in test [4], 4 µM.
Take `CCCCCCCCCCCCCCCC[N+](C)(C)CC[N+](C)(C)CCCCCCCC`: the MIC is 4 µM in test [1], 2 µM in test [2], 2 µM in test [3] and 2 µM in test [4].
`CCCCCCCCCC[N+](C)(C)CC[N+](C)(C)CCCCCCCCCC`: the minimum inhibitory concentration (MIC) stood at 8 µM in test [1], 16 µM in test [2], 8 µM in test [3] and 2 µM in test [4].
For the compound `CCCCCCCCCC[N+](C)(C)CC[N+](C)(C)CCCCCCCC`, the MIC came to 125 µM in test [1], 63 µM in test [2], 63 µM in test [3] and 8 µM in test [4].
For the compound `CCCCCCCCCCCCC[N+](C)(C)CC[N+](C)(C)CCCCCCCCCC`, the MIC in test [1] was 2 µM; in test [2] it was 2 µM; in test [3] it was 1 µM; in test [4], 1 µM.
Take `CCCCCCCCCC[N+](C)(C)CCN(C)C`: the MIC turned out to be 250 µM in test [1], 250 µM in test [2], 250 µM in test [3] and 63 µM in test [4].
In the case of `CCCCCCCCCCCCCC[N+](C)(C)CC[N+](C)(C)CCCCCCCCCC`, the MIC in test [1] was 4 µM; in test [2], 2 µM; in test [3], 1 µM; in test [4], 4 µM.
Take `CCCCCCCCCCCCCCCC[N+](C)(C)CC[N+](C)(C)CCCCCCCCCC`: the MIC was determined as 32 µM in test [1], 8 µM in test [2], 4 µM in test [3] and 4 µM in test [4].
As to `CCCCCCCCCCCCCCCCCC[N+](C)(C)CC[N+](C)(C)CCCCCCCC`, the MIC in test [1] turned out to be 32 µM; in test [2] it was 8 µM; in test [3], 2 µM; in test [4], 2 µM.
Consider `CCCCCCCCCCCCCCCC[N+](C)(C)CCN(C)C`, for which the MIC in test [1] was determined as 16 µM; in test [2], 16 µM; in test [3] it was 16 µM; in test [4], 1 µM.
For `CCCCCCCCCCCC[N+](C)(C)CC[N+](C)(C)CCCCCCCCCC`, the minimal inhibitory concentration (MIC) in test [1] is 2 µM; in test [2], 2 µM; in test [3] it was 2 µM; in test [4] it was 1 µM.
`CCCCCCCCCCCCCCCCCC[N+](C)(C)CC[N+](C)(C)CCCCCCCCCCCCCC`: the MIC was 63 µM in test [1], 16 µM in test [2], 16 µM in test [3] and 8 µM in test [4].
As to `CCCCCCCCCCCCCCCCCC[N+](C)(C)CC[N+](C)(C)CCCCCCCCCCCCCCCC`, the minimum inhibitory concentration (MIC) came to 63 µM in test [1], 32 µM in test [2], 32 µM in test [3] and 16 µM in test [4].
For `CCCCCCCCCCCCCCCCCC[N+](C)(C)CC[N+](C)(C)CCCCCCCCCCCCCCCCCC`, the MIC in test [1] was determined as 500 µM; in test [2], 250 µM; in test [3] it was 63 µM; in test [4], 32 µM.
On to `CCCCCCCCCCCC[N+](C)(C)CCN(C)C`, for which the minimal inhibitory concentration (MIC) is 250 µM in test [1], 63 µM in test [2], 63 µM in test [3] and 32 µM in test [4].
On to `CCCCCCCCCCCC[N+](C)(C)CC[N+](C)(C)CCCCCCCC`, for which the MIC worked out at 4 µM in test [1], 4 µM in test [2], 4 µM in test [3] and 1 µM in test [4].
As to `CCCCCCCCCCCC[N+](C)(C)CC[N+](C)(C)CCCCCCCCCCCC`, the MIC was 4 µM in test [1], 2 µM in test [2], 1 µM in test [3] and 1 µM in test [4].
In the case of `CCCCCCCCCCCCCCCCCCCC[N+](C)(C)CC[N+](C)(C)CCCCCCCCCC`, the MIC in test [1] is 16 µM; in test [2], 16 µM; in test [3], 16 µM; in test [4] it was 4 µM.
Regarding `CCCCCCCCCCCCCCCC[N+](C)(C)CC[N+](C)(C)CCCCCCCCCCCC`, the MIC in test [1] was 32 µM; in test [2], 8 µM; in test [3] it was 4 µM; in test [4], 8 µM.
Take `CCCCCCCCCCCCCC[N+](C)(C)CC[N+](C)(C)CCCCCCCCCCCC`: the MIC in test [1] stood at 8 µM; in test [2], 2 µM; in test [3] it was 2 µM; in test [4], 1 µM.
As for `CCCCCCCCCCCCCC[N+](C)(C)CC[N+](C)(C)CCCCCCCC`, the MIC amounted to 4 µM in test [1], 2 µM in test [2], 2 µM in test [3] and 1 µM in test [4].
`CCCCCCCCCCCCCCCC[N+](C)(C)CC[N+](C)(C)CCCCCCCCCCCCCCCC`: the MIC worked out at 63 µM in test [1], 32 µM in test [2], 8 µM in test [3] and 8 µM in test [4].
For `CCCCCCCCCCC[N+](C)(C)CC[N+](C)(C)CCCCCCCCCC`, the MIC turned out to be 4 µM in test [1], 4 µM in test [2], 4 µM in test [3] and 1 µM in test [4].
On to `CCCCCCCC[N+](C)(C)CC[N+](C)(C)CCCCCCCC`, for which the MIC in test [1] was determined as 500 µM; in test [2], 250 µM; in test [3], 500 µM; in test [4], 32 µM.
On to `CCCCCCCCCCCCCC[N+](C)(C)CCN(C)C`, for which the MIC in test [1] came to 125 µM; in test [2], 16 µM; in test [3], 8 µM; in test [4] it was 2 µM.
Taken in the same sequence, the figures for `CCCCCCCCCCCCCCCCCCCC[N+](C)(C)CC[N+](C)(C)CCCCCCCCCCCC` were 63 µM, 32 µM, 4 µM and 8 µM.

For the origin of these results see ChEMBL document CHEMBL3098048, “TMEDA-derived biscationic amphiphiles: An economical preparation of potent antibacterial agents” (2014).
